Experimental data: patent US20150218516A1, “COMPOSITIONS AND METHODS FOR ENHANCING IMMUNE RESPONSES MEDIATED BY ANTIGEN-PRESENTING CELLS” (The Board of Regents of the University of Nebraska, priority 2007, published 2015)

Columns and labels:
[1] = system: A-375 cell line (melanoma); assay type: cell-based, human
Method: The tumor peptide antigen tyrosinase is expressed on more than 70% of human melanoma cells that are human leukocyte antigen (HLA) A2 positive. […] The dendritic cells, presumably expressing the tyrosinase epitope, were then cultured with a lymphocyte-enriched cell population which was then cultured with melanoma cells to determine melanoma cell killing using a cytotoxic T lymphocyte assay.

BEAS-2B epithelial cells = system: BEAS-2B epithelial cells
Method: (§1) An exemplary in vitro cytotoxicity assay comprises the following steps. Antigen presenting cells, such as dendritic cells, were obtained from bone marrow or blood. Dendritic cells were preferentially differentiated in culture through the addition of IL-4, GM-CSF, and TNFα for 7-10 days. Dendritic cells were then pulsed with peptides for 18 hours. MNCs were also isolated from spleens or blood (e.g., cord or peripheral) and cultured in IL-2 and GM-CSF for 7-10 days for enhanced lymphocyte proliferation. The pulsed dendritic cells were then co-cultured with the lymphocyte-enriched MNCs at a 1:10 ratio for 4 days. Lymphocyte-enriched MNC effector cells were then co-cultured with tumor target cells labeled with the bioactive fluorescent dye Calcein AM for 4 hours. Lysed cells were detected by photometrically measuring the released fluorescent dye.
(§2) Certain prostate carcinomas express prostate-specific membrane antigen (PSMA). […] The fusion peptides were administered to APCs which were subsequently presented to a lymphocyte-enriched population from cord blood as described hereinabove in Example 6. After antigen presentation by pulsed DC in co-culture, CTLs were tested for their ability to lyse three different target cell monolayers in an in vitro cytotoxicity assay. […] The fusion peptides were also administered to APCs which were subsequently presented to a adult peripheral blood-derived CTLs. In vitro cytotoxicity against the human prostate cancer cell line LNCaP was then assessed using the bioactive fluorescent dye calcein AM (FIG. 11D).

LNCaP cells = system: LNCaP cells
Method: as §1, §2

SMILES	cytotoxicity against A-375 (in words) [1]	cytotoxicity against BEAS-2B (in words) (BEAS-2B epithelial cells)	cytotoxicity against LNCaP (in words) (LNCaP cells)
CC(C)C[C@H](NC(=O)[C@@H](N)CC(C)C)C(=O)N[C@@H](Cc1c[nH]cn1)C(=O)N[C@@H](CCC(=O)O)C(=O)N[C@H](C(=O)N[C@@H](CC(=O)O)C(=O)N[C@@H](CO)C(=O)N[C@@H](C)C(=O)N[C@H](C(=O)O)C(C)C)[C@@H](C)O [PSMA p1]	not cytotoxic	not cytotoxic	did not exhibit significant cytotoxicity
CC[C@H](C)[C@H](NC(=O)[C@H](CC(=O)O)NC(=O)[C@H](Cc1ccccc1)NC(=O)[C@H](CC(C)C)NC(=O)[C@H](C)N)C(=O)N[C@@H](CCC(=O)O)C(=O)N[C@@H](CO)C(=O)N[C@@H](CCCCN)C(=O)N[C@H](C(=O)O)C(C)C [PSMA p2]	not cytotoxic	not cytotoxic	did not exhibit significant cytotoxicity
